Experimental data taken from patent publication US7501430B2 (ArQule, Inc., priority 2006, dated 2009).

target: T1, mutant B-RAF (Homo sapiens, UniProt P15056, V600E); assay: RAF biochemical assay (MEK-1 phosphorylation, anti-phospho MEK1/2 detection); conditions: not given
T1 construct: purchased Upstate (Charlottesville, Va.)
Method in brief: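 Detection is by ELISA: after a 30 min room-temperature reaction, plate-captured GST-MEK-1 is probed with anti-phospho MEK1/2, then an AP-tagged secondary antibody with fluorescent Attophos read-out.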

T1 sequence (P15056 whole entry V600E): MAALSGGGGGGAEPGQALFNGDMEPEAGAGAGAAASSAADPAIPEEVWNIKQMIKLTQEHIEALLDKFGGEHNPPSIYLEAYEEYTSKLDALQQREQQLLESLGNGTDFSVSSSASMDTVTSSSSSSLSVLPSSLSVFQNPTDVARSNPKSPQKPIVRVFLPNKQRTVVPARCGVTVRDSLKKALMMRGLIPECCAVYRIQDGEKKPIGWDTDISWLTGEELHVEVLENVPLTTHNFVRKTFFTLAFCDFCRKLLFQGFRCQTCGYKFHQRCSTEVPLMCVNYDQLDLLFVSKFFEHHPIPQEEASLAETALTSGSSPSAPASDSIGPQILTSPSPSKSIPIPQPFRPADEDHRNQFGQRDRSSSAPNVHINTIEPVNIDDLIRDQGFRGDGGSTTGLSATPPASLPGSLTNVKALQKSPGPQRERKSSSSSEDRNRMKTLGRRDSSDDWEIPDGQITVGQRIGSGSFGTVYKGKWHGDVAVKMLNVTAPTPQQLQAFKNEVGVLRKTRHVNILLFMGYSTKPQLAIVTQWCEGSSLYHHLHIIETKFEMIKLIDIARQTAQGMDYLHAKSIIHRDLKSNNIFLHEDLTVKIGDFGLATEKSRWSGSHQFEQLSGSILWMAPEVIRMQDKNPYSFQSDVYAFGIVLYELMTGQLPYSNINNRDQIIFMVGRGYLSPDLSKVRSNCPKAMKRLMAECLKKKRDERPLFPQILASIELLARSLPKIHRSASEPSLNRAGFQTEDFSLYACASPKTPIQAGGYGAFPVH

SMILES	IC50
O=C(c1ccco1)N1CCC[C@@H](Nc2nccc(-c3c(-c4ccc(F)cc4)nc4occn34)n2)C1 [Example 33, 4-[6-(4-fluorophenyl)imi-dazo[2,1-b][1,3]oxazol-5-yl]-N-[(3R)-1-(2-furoyl)piperidin-3-yl]pyrimidin-2-amine]	2.17 µM
CC(C)c1ccc(S(=O)(=O)N2CCC[C@@H](Nc3nccc(-c4c(-c5ccc(F)cc5)nc5occn45)n3)C2)cc1 [Example 48, 4-[6-(4-fluorophenyl)imi-dazo[2,1-b][1,3]oxazol-5-yl]-N-{(3R)-1-[(4-isopropyl-phenyl)sulfonyl]piperidin-3-yl}pyrimidin-2-amine]	3.02 µM

same assay, conditions: @ 5 uM

inhibition at 5 µM	SMILES
85%	O=S(=O)(c1cccc(F)c1)N1CCC(Nc2nccc(-c3c(-c4ccc(F)cc4)nc4occn34)n2)CC1 [Example 237, 4-[6-(4-fluorophenyl)imidazo[2,1-b][1,3]oxazol-5-yl]-N-{1-[(3-fluorophenyl)sulfonyl]piper-idin-4-yl}pyrimidin-2-amine]

same assay, conditions: @ 10 uM; read-out: Mutant B-RAF % inhibition

SMILES	inhibition at 10 µM
Cc1nc(S(=O)(=O)N2CCC[C@@H](Nc3nccc(-c4c(-c5ccc(F)cc5)nc5occn45)n3)C2)cn1C [Example 66, N-{(3R)-1-[(1,2-dimethyl-1H-imidazol-4-yl)sulfonyl]piper-idin-3-yl}-4-[6-(4-fluorophenyl)imidazo[2,1-b][1,3]oxazol-5-yl]pyrimidin-2-amine]	70%
Cc1ccccc1S(=O)(=O)N1CCC(Nc2nccc(-c3c(-c4ccc(F)cc4)nc4occn34)n2)CC1 [Example 235, 4-[6-(4-fluorophenyl)imidazo[2,1-b][1,3]oxazol-5-yl]-N-{1-[(2-methylphenyl)sulfonyl]piperidin-4-yl}pyrimidin-2-amine]	30%
Cc1ccnc(SCC(=O)N2CCC(Nc3nccc(-c4c(-c5ccc(F)cc5)nc5occn45)n3)CC2)n1 [Example 215, 4-[6-(4-fluorophenyl)imidazo[2,1-b][1,3]oxazol-5-yl]-N-(1-{[(4-methylpyrimidin-2-yl)thio]acetyl}piperidin-4-yl)pyrimidin-2-amine]	40%
Cc1cc(NC(=O)N2CCC[C@@H](Nc3nccc(-c4c(-c5ccc(F)cc5)nc5occn45)n3)C2)c(C(F)(F)F)o1 [Example 67, (3R)-3-({4-[6-(4-fluorophenyl)imidazo[2,1-b][1,3]oxazol-5-yl]pyrimidin-2-yl}amino)-N-[5-methyl-2-(trifluoromethyl)-3-furyl]piperidine-1-carboxamide]	29%
O=C(c1ccco1)N1CCC(Nc2nccc(-c3c(-c4ccc(F)cc4)nc4occn34)n2)CC1 [Example 166, 4-[6-(4-fluorophenyl)imidazo[2,1-b][1,3]oxazol-5-yl]-N-[1-(2-furoyl)piperidin-4-yl]pyrimidin-2-amine]	76%

Continued, values first:

inhibition at 10 µM	SMILES
39%	Fc1ccc(-c2nc3occn3c2-c2ccnc(NC3CCNCC3)n2)c(Cl)c1 [Example 301, 4-[6-(2-chloro-4-fluorophenyl)imidazo[2,1-b][1,3]oxazol-5-yl]-N-piperidin-4-ylpyrimidin-2-amine]
55%	Clc1ccccc1-c1nc2occn2c1-c1ccnc(NC2CCNCC2)n1 [Example 307, 4-[6-(2-chlorophenyl)imidazo[2,1-b][1,3]oxazol-5-yl]-N-piperidin-4-ylpyrimidin-2-amine]

same assay, conditions: read-out: Mutant B-RAF IC50

SMILES	IC50
O=S(=O)(c1ccc(Cl)cc1)N1CCC[C@@H](Nc2nccc(-c3c(-c4ccc(O)c(O)c4)nc4sccn34)n2)C1 [Example 134, 4-{5-[2-({(3R)-1-[(4-chlorophenyl)sulfonyl]piperidin-3-yl}amino)pyrimidin-4-yl]imidazo[2,1-b][1,3]thiazol-6-yl}benzene-1,2-diol]	0.024 µM
CC(=O)Nc1cccc(-c2nc3sccn3c2-c2ccnc(N[C@@H]3CCCN(S(=O)(=O)c4ccc(Cl)cc4)C3)n2)c1 [Example 123, N-(3-{5-[2-({(3R)-1-[(4-chlorophenyl)sulfonyl]piperidin-3-yl}amino)pyrimidin-4-yl]imidazo[2,1-b][1,3]thiazol-6-yl}phenyl)acetamide]	0.215 µM
O=C(CCc1ccccc1)N1CCC(Nc2nccc(-c3c(-c4ccc(F)cc4)nc4occn34)n2)CC1 [Example 189, 4-[6-(4-fluorophenyl)imidazo[2,1-b][1,3]oxazol-5-yl]-N-[1-(3-phenylpropanoyl)piperidin-4-yl]pyrimidin-2-amine]	1.94 µM
COc1cccc(-c2nc3sccn3c2-c2ccnc(NC3CCN(C(=O)NCc4ccco4)CC3)n2)c1 [Example 234, N-(2-furylmethyl)-4-({4-[6-(3-methoxyphenyl)imidazo[2,1-b][1,3]thiazol-5-yl]pyrimidin-2-yl}amino)piperidine-1-carboxamide]	0.825 µM
O=C(COc1ccc(Cl)cc1)N1CCC[C@@H](Nc2nccc(-c3c(-c4ccc(F)cc4)nc4occn34)n2)C1 [Example 29, N-{(3R)-1-[(4-chlorophenoxy)acetyl]piper-idin-3-yl}-4-[6-(4-fluorophenyl)imidazo[2,1-b][1,3]oxazol-5-yl]pyrimidin-2-amine]	1.82 µM
O=S(=O)(c1ccc(Cl)cc1)N1CCC[C@H](Nc2nccc(-c3c(-c4cccc(O)c4)nc4sccn34)n2)C1 [Example 140, 3-{5-[2-({(3S)-1-[(4-chlorophenyl)sulfonyl]piperidin-3-yl}amino)pyrimidin-4-yl]imidazo[2,1-b][1,3]thiazol-6-yl}phenol]	0.953 µM
CCNC(=O)N1CCC(Nc2nccc(-c3c(-c4cccc(OC)c4)nc4sccn34)n2)CC1 [Example 213, N-ethyl-4-({4-[6-(3-methoxyphenyl)imidazo[2,1-b][1,3]thiazol-5-yl]pyrimidin-2-yl}amino)piperidine-1-carboxamide]	2.04 µM
O=S(=O)(c1ccc(Cl)cc1)N1CCC[C@@H](Nc2nccc(-c3c(-c4ccc(F)cc4)nc4occn34)n2)C1 [Example 43, N-{(3R)-1-[(4-chlorophenyl)sulfonyl]piper-idin-3-yl}-4-[6-(4-fluorophenyl)imidazo[2,1-b][1,3]oxazol-5-yl]pyrimidin-2-amine]	0.143 µM
COc1cccc(-c2nc3sccn3c2-c2ccnc(N[C@@H]3CCCNC3)n2)c1 [Example 77, 4-[6-(3-methoxyphenyl)imidazo[2,1-b][1,3]thiazol-5-yl]-N-[(3R)-piperidin-3-yl]pyrimidin-2-amine]	1.81 µM

Next, values leading:

IC50	SMILES
> 3 µM	O=S(=O)(CC(F)(F)F)N1CCC[C@@H](Nc2nccc(-c3c(-c4cccc(O)c4)nc4sccn34)n2)C1 [Example 375, 3-{5-[2-({(3R)-1-[(2,2,2-trifluoroethyl)sulfonyl]piperidin-3-yl}amino)pyrimidin-4-yl]imidazo[2,1-b][1,3]thiazol-6-yl}phenol]
> 3 µM	CCCOC(=O)N1CCC(Nc2nccc(-c3c(-c4cccc(O)c4)nc4sccn34)n2)CC1 [Example 387, propyl 4-({4-[6-(3-hydroxyphenyl)imidazo[2,1-b][1,3]thiazol-5-yl]pyrimidin-2-yl}amino)piperidine-1-carboxylate]
0.522 µM	O=C(O)c1ccc(S(=O)(=O)N2CC[C@@H](Nc3nccc(-c4c(-c5cccc(O)c5)nc5sccn45)n3)C2)cc1 [Example 282, 4-{[(3R)-3-({4-[6-(3-hydroxyphenyl)imidazo[2,1-b][1,3]thiazol-5-yl]pyrimidin-2-yl}amino)pyrrolidin-1-yl]sulfonyl}benzoic acid]
0.018 µM	O=S(=O)(c1ccc(Cl)cc1)N1CCC[C@@H](Nc2nccc(-c3c(-c4cccc(/C=N\O)c4)nc4sccn34)n2)C1 [Example 395, 3-{5-[2-({(3R)-1-[(4-chlorophenyl)sulfonyl]piperidin-3-yl}amino)pyrimidin-4-yl]imidazo[2,1-b][1,3]thiazol-6-yl}benzaldehyde oxime]
0.034 µM	C/C(=N\O)c1cccc(-c2nc3sccn3c2-c2ccnc(N[C@@H]3CCCN(S(=O)(=O)c4ccc(Cl)cc4)C3)n2)c1 [Example 389, (1E)-1-(3-{5-[2-({(3R)-1-[(4-chlorophenyl)sulfonyl]piperidin-3-yl}amino)pyrimidin-4-yl]imidazo[2,1-b][1,3]thiazol-6-yl}phenyl)ethanone oxime]
> 5 µM	COc1cccc(-c2nc3sccn3c2-c2ccnc(NC3CCN(S(=O)(=O)c4ccc(Cl)cc4)CC3)n2)c1 [Example 263, N-{1-[(4-chlorophenyl)sulfonyl]piperidin-4-yl}-4-[6-(3-methoxyphenyl)imidazo[2,1-b][1,3]thiazol-5-yl]pyrimidin-2-amine]
> 3 µM	CCS(=O)(=O)N1CCC[C@@H](Nc2nccc(-c3c(-c4cccc(O)c4)nc4sccn34)n2)C1 [Example 373, 3-[5-(2-{[(3R)-1-(ethylsulfonyl)piperidin-3-yl]amino}pyrimidin-4-yl)imidazo[2,1-b][1,3]thiazol-6-yl]phenol]
2.46 µM	COc1cccc(-c2nc3sccn3c2-c2ccnc(NC3CCN(C(=O)Cc4ccc(N(C)C)cc4)CC3)n2)c1 [Example 245, N-(1-{[4-(dimethylamino)phenyl]acetyl}piperidin-4-yl)-4-[6-(3-methoxyphenyl)imidazo[2,1-b][1,3]thiazol-5-yl]pyrimidin-2-amine]
> 3 µM	CN(C)c1ccc(NC(=O)N2CCC(Nc3nccc(-c4c(-c5ccc(-c6ccccc6)cc5)nc5sccn45)n3)CC2)cc1 [Example 254, 4-{[4-(6-biphenyl-4-ylimidazo[2,1-b][1,3]thiazol-5-yl)pyri-midin-2-yl]amino)-N-[4-(di-methylamino)phenyl]piperidine-1-carboxamide]
2.54 µM	O=C(NC1CCCC1)N1CCC(Nc2nccc(-c3c(-c4cccc(O)c4)nc4sccn34)n2)CC1 [Example 356, N-cyclopentyl-4-({4-[6-(3-hydroxyphenyl)imidazo[2,1-b][1,3]thiazol-5-yl]pyrimidin-2-yl}amino)piperidine-1-carboxamide]

same assay, conditions: read-out: Mutant B-RAF IC50 (uM) or % inhibition

IC50	SMILES
> 3 µM	O=S(=O)(c1ccsc1)N1CCC[C@@H](Nc2nccc(-c3c(-c4cccc(O)c4)nc4occn34)n2)C1 [Example 399, 3-[5-(2-{[(3R)-1-(3-thienylsulfonyl)piperidin-3-yl]amino}pyrimidin-4-yl)imidazo[2,1-b][1,3]oxazol-6-yl]phenol]
